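Cells were grown in 96-well plates and exposed to each compound for 48 hours at five concentrations; endpoints were interpolated linearly between bracketing concentrations, or set to the highest concentration if not reached. TGI is the concentration that stops growth completely.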
Columns and labels:
Experiment in all cases: NCI anticancer screen, dose series, 48 h
DMS 114 small cell lung = test system: DMS 114 small cell lung
SK-MEL-5 melanoma = test system: SK-MEL-5 melanoma
EKVX NSCLC = test system: EKVX NSCLC
CCRF-CEM leukemia = test system: CCRF-CEM leukemia
NCI-H460 lung = test system: NCI-H460 lung
UO-31 renal = test system: UO-31 renal
DLD-1 colon = test system: DLD-1 colon
NCI-H23 lung = test system: NCI-H23 lung
RXF-631 renal = test system: RXF-631 renal
SK-MEL-2 melanoma = test system: SK-MEL-2 melanoma
XF 498 CNS = test system: XF 498 CNS
RPMI-8226 leukemia = test system: RPMI-8226 leukemia
SNB-19 CNS = test system: SNB-19 CNS
IGROV1 ovarian = test system: IGROV1 ovarian
TK-10 renal = test system: TK-10 renal
HOP-18 NSCLC = test system: HOP-18 NSCLC
HOP-62 NSCLC = test system: HOP-62 NSCLC
KM12 colon = test system: KM12 colon
OVCAR-3 ovarian = test system: OVCAR-3 ovarian
SK-MEL-28 melanoma = test system: SK-MEL-28 melanoma
MOLT-4 leukemia = test system: MOLT-4 leukemia
HOP-92 NSCLC = test system: HOP-92 NSCLC
RXF 393 renal = test system: RXF 393 renal
786-0 renal = test system: 786-0 renal
MALME-3M melanoma = test system: MALME-3M melanoma
SF-539 CNS = test system: SF-539 CNS
LXFL 529 NSCLC = test system: LXFL 529 NSCLC
NCI-H522 lung = test system: NCI-H522 lung
SNB-75 CNS = test system: SNB-75 CNS
COLO 205 colon = test system: COLO 205 colon
ACHN renal = test system: ACHN renal
UACC-257 melanoma = test system: UACC-257 melanoma
OVCAR-4 ovarian = test system: OVCAR-4 ovarian
A549 NSCLC = test system: A549 NSCLC
HCC-2998 colon = test system: HCC-2998 colon
DMS 273 small cell lung = test system: DMS 273 small cell lung
U251 CNS = test system: U251 CNS
SR leukemia = test system: SR leukemia
HT29 colon = test system: HT29 colon
HCT-116 colon = test system: HCT-116 colon
OVCAR-5 ovarian = test system: OVCAR-5 ovarian
SW-620 colon = test system: SW-620 colon
OVCAR-8 ovarian = test system: OVCAR-8 ovarian
K-562 leukemia = test system: K-562 leukemia
SN12C renal = test system: SN12C renal
SK-OV-3 ovarian = test system: SK-OV-3 ovarian
HL-60(TB) leukemia = test system: HL-60(TB) leukemia
SF-295 CNS = test system: SF-295 CNS
UACC-62 melanoma = test system: UACC-62 melanoma
M19-MEL melanoma = test system: M19-MEL melanoma
KM20L2 colon = test system: KM20L2 colon
SF-268 CNS = test system: SF-268 CNS
HCT-15 colon = test system: HCT-15 colon
NCI-H226 lung = test system: NCI-H226 lung
LOX IMVI melanoma = test system: LOX IMVI melanoma
M14 melanoma = test system: M14 melanoma
A498 renal = test system: A498 renal
CAKI-1 renal = test system: CAKI-1 renal
SNB-78 CNS = test system: SNB-78 CNS

Measured: TGI

O=C(NCc1ccc2ccc3cccnc3c2n1)c1ccc[n+](Cc2ccccc2)c1
not listed: A498 renal | CAKI-1 renal | SNB-78 CNS
> 100 µM: all other assays above

CC1(C)C(=O)C(=Cc2ccco2)C1=O
not listed: SNB-19 CNS | HOP-62 NSCLC | OVCAR-3 ovarian | RXF 393 renal | DMS 273 small cell lung | KM20L2 colon
> 100 µM: all other assays above

Source: PubChem BioAssay (NCI)
